Source: ChEMBL document CHEMBL1135945, “CoMFA and HQSAR of acylhydrazide cruzain inhibitors” (Bioorg Med Chem Lett, 2002)

Molecular target: Cruzipain (Trypanosoma cruzi, UniProt P25779)
Assay: Inhibition of cruzain, the major cysteine protease from Trypanosoma cruzi

Cruzipain, sequence (P25779 whole entry): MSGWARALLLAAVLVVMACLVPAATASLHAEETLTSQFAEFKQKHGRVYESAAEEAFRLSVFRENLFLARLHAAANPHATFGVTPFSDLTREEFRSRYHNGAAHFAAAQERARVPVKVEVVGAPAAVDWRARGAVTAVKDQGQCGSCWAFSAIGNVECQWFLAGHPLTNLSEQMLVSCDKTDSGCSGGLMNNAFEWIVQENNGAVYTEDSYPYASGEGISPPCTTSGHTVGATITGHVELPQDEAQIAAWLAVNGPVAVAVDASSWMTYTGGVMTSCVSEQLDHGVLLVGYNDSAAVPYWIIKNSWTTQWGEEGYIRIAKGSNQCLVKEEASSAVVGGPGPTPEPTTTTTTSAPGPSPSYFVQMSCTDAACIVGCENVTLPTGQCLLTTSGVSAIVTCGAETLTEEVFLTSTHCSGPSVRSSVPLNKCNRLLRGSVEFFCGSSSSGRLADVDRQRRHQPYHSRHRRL

Question: For `CN(C)c1ccc(/C=N/NC(=O)c2ccnc3ccccc23)c2ccccc12`, which IC50 is on record?
Answer: 6.03 µM

Question: How did the IC50 turn out when `O=C(N/N=C/c1ccc(-c2ccccc2[N+](=O)[O-])o1)c1ccccc1O` was run?
Answer: 20 µM

Question: Which IC50 does the source give for `O=C(N/N=C/c1ccc(-c2ccccc2Cl)o1)c1cc2ccccc2cc1O` here?
Answer: 0.603 µM

Question: How did the IC50 turn out when `O=C(N/N=C/c1ccnc2ccccc12)c1ccccc1O` was run?
Answer: 30.2 µM

Question: With `CSc1ccc(/C=N/NC(=O)c2cccc(C)c2O)s1` as the molecule, how does the IC50 read?
Answer: 10 µM

Question: For `COc1ccc(C(=O)N/N=C/c2ccoc2)c(OC)c1`, which IC50 is on record?
Answer: 166 µM

Question: With `O=C(N/N=C/c1ccc([N+](=O)[O-])o1)c1cccc([N+](=O)[O-])c1` as the molecule, how does the IC50 read?
Answer: 5.01 µM

Question: For `O=C(N/N=C/c1ccc(-c2ccc(Cl)cc2)o1)c1ccccc1O`, which IC50 is on record?
Answer: 100 µM

Question: For `O=C(N/N=C/c1ccc(C(=O)O)o1)c1cccc([N+](=O)[O-])c1`, which IC50 is on record?
Answer: 331 µM

Question: For `COc1ccc2cc(O)c(C(=O)N/N=C/c3ccc(-c4cc(C(F)(F)F)nn4C)s3)cc2c1`, which IC50 is on record?
Answer: 0.2 µM

Question: Which IC50 does the source give for `CN(C)c1ccc(/C=N/NC(=O)c2ccccc2)c2ccccc12` here?
Answer: 0.501 µM

Question: `CN(C)c1ccc(/C=N/NC(=O)c2ccc(O)c(O)c2)c2ccccc12` was tested. Which IC50 did it give?
Answer: 16.2 µM

Question: Which IC50 does the source give for `COc1cc(OC)cc(C(=O)N/N=C/c2ccc(C(=O)O)o2)c1` here?
Answer: 10 µM

Question: How did the IC50 turn out when `O=C(N/N=C/c1ccc([N+](=O)[O-])o1)c1cc2ccccc2cc1O` was run?
Answer: 6.03 µM

Question: `O=C(N/N=C/c1cc(Br)cs1)c1cnc2ccccc2c1` was tested. Which IC50 did it give?
Answer: 30.2 µM

Question: How did the IC50 turn out when `O=C(N/N=C/c1ccc(-c2cccc([N+](=O)[O-])c2)o1)c1ccc2ccccc2c1` was run?
Answer: 6.03 µM
